# Source: patent US12428651B2, “Transcription factors to improve resistance to environmental stress in plants” (Board of Trustees of Michigan State University, priority 2016, dated 2025)
# Key:
# phyB-9 mutant plants = assay: Primary root length in the presence of 15 μM 5-MT, phyB-9 plants overexpressing MYC2 variants; assay type: in vivo, Arabidopsis thaliana; conditions: 14-day-old seedlings, overexpression in phyB-9, normalized to the same genotype without 5-MT
# Method: Primary root length in the presence of 15 μM 5-MT was evaluated for 14-day-old seedlings of non-transgenic (NT) phyB-9 mutant plants or phyB-9 mutant plants that overexpressed either wild-type (WT) MYC2 or a MYC2^D105N/E165K mutant allele that harbors two point mutations (D105N and E165K) that prevent JAZ binding. Primary root length was determined as the root length of a given genotype grown in the presence of 15 μM 5-MT normalized to the root length of the same genotype grown in the absence of 5-MT.
# JAZ proteins = conditions: literature (Goossens et al., 2015; Smolen et al., 2002); cited from earlier work
# Arabidopsis = assay: Resistance to 5-methyl tryptophan (5-MT) of transgenic Arabidopsis overexpressing MYC transcription factors; assay type: in vivo, Arabidopsis thaliana; conditions: for 5-MT resistance: overexpression from the 35S promoter, phyB mutant background, 50 μM 5-methyl-tryptophan, 3 weeks, preliminary results
# Method: Functional analysis of these and other MYC^D transcription factors in planta was performed by overexpressing the transcription factors in Arabidopsis with subsequent testing of the resulting transgenic lines for increased resistance to 5-methyl tryptophan (5-MT), a toxic analog of the amino acid tryptophan.
# MED25 = biological target: T1, MED25 (Arabidopsis thaliana, UniProt Q7XYY2); assay: Yeast two-hybrid analysis of MED25 (bait) interaction with wild-type MYC3 and MYC3 point mutants (prey); assay type: binding; conditions: MYC3 variant prey
# T1 construct: expressed in transfected cells; host or cells: yeast (two-hybrid)
# T1 sequence (Q7XYY2 1-836): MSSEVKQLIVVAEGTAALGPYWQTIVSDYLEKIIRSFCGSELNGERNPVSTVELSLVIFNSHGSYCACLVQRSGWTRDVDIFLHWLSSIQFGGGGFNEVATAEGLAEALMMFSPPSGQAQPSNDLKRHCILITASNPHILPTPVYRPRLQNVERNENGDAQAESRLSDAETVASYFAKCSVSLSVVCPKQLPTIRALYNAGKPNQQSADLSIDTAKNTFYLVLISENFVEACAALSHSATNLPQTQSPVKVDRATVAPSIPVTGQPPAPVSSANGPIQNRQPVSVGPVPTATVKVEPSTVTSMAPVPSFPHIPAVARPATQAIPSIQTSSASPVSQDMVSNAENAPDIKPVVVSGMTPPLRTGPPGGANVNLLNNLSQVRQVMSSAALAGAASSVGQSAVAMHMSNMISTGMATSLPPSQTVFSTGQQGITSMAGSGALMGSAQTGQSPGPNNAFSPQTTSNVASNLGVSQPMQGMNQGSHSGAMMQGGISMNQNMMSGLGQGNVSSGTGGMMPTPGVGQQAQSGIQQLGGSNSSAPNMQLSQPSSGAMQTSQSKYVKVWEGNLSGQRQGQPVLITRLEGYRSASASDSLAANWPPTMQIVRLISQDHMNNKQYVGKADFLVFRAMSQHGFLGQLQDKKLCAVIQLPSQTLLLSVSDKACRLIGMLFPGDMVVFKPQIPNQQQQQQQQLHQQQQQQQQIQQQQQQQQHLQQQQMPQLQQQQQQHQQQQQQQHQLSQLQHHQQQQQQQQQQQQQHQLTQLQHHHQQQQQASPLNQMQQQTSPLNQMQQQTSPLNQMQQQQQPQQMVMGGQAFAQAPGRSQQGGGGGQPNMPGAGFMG
# Method: (§1) The interactions of mutants MYC3^L152A and MYC3^E148A/M155A with JAZ10.4 and MED25 was evaluated using yeast two-hybrid analyses to visualize MED25 and JAZ10.4 (bait) interactions with wild-type MYC3 and MYC3 point mutants (prey).
# JAZ10.4 = biological target: T2, JAZ10.4 (Arabidopsis thaliana, UniProt Q93ZM9); assay: Yeast two-hybrid analysis of JAZ10.4 (bait) interaction with wild-type MYC3 and MYC3 point mutants (prey); assay type: binding; conditions: JAZ10.4 bait (CMID, no Jas motif), MYC3 variant prey
# T2 construct: expressed in transfected cells; host or cells: yeast (two-hybrid)
# T2 sequence (Q93ZM9 1-167 isoform Q93ZM9-3): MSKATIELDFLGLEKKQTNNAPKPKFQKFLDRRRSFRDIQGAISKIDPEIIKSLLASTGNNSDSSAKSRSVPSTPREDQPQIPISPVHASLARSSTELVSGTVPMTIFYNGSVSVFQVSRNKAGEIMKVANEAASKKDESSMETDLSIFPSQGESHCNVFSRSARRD
# Method: The structural information from the MYC3-CMID complex was used to generate site-directed mutants of MYC3 that have reduced interaction with the JAZ10.4 splice variant, which contains a CMID but not a Jas motif (Chung and Howe 2009). Several promising mutants were made.
# as §1
substance,measurement,setting,value
MYC2^D105N/E165K: MYC2 mutant allele that harbors two point mutations (D105N and E165K) that prevent JAZ binding,primary root length,phyB-9 mutant plants,best primary root growth
"MYC3^D94N: dominant MYC3 variant (atr2D allele), Asp-to-Asn missense mutation in the JAZ-interacting domain",interaction with most JAZ proteins,JAZ proteins,fail to interact
same,5-MT resistance,Arabidopsis,confers 5-MT resistance
MYC3^E148A/M155A,MED25 interaction,MED25,still interacted
same,JAZ10.4 interaction,JAZ10.4,strongly reduced
MYC3^L152A,MED25 interaction,MED25,still interacted
same,JAZ10.4 interaction,JAZ10.4,strongly reduced
tomato MYC2 D132N: tomato (Solanum lycopersicum) MYC2 protein with SEQ ID NO:19 modified to have a D132N mutation,resistance to 5-MT,"Arabidopsis; tomato MYC2 variant overexpressed in Arabidopsis, data not shown",confers resistance
"wild type MYC2: Arabidopsis thaliana MYC2 sequence, SEQ ID NO:1 [reference compound]",primary root length,phyB-9 mutant plants,improves primary root length
"wild-type MYC3: Arabidopsis thaliana MYC3 sequence, SEQ ID NO:3",5-MT resistance,Arabidopsis,not
